pEC50: −log10 of the molar value.
Columns and labels:
[1] = molecular target: T1, GST-LXRβ ligand-binding domain (Homo sapiens, UniProt P55055); experiment: TR-FRETβ activity assay (NCoA3 coactivator peptide recruitment); format: biochemical; details: 1 μM 24(S)-25-epoxycholesterol prestimulation
T1 construct: amino acids 156-461; NP009052; made in house; host or cells: E. coli
T1 sequence (P55055 156-460 limits assumed): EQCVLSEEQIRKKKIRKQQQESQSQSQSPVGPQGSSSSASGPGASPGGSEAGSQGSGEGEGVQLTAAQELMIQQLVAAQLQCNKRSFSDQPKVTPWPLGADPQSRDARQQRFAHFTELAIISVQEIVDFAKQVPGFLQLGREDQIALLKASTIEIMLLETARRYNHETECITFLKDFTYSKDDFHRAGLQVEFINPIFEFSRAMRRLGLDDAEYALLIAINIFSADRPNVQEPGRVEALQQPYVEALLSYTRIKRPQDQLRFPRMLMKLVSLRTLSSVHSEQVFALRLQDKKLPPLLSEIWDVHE
Outline: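 E. coli-expressed GST-LXRβ LBD (aa 156-461, 76 nM) with biotinylated NCoA3 peptide (400 nM) in Tris/HCl pH 6.8 containing 1 μM 24(S)-25-epoxycholesterol agonist. Compounds tested at 50 μM down to 0.002 μM in triplicate. TR-FRET (Tb cryptate/XL665, ex 340, em 615/665 nm) read after 1 h at 4° C.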

[2] = molecular target: T2, LXRβ (Homo sapiens, UniProt P55055); experiment: LXR Gal4 reporter transient transfection assay (mammalian two-hybrid, HEK293), LXRβ; format: cell-based; details: ligand-binding domain (LBD) of LXRβ, HEK293; read-out: LBD-M2H Gal4β
T2 construct: LXRβ (amino acids 156-461); expressed in transfected cells; host or cells: HEK293
T2 sequence (P55055 156-460): T1 sequence (P55055 156-460 limits assumed)
Procedure: LXRα and LXRβ activity status was determined via detection of interaction with coactivator and corepressor proteins in mammalian two-hybrid experiments (M2H). For this, via transient transfection the full length (FL) proteins of LXRα (amino acids 1-447; NP005684; SEQ ID NO:1) or LXRβ-(amino acids 1-461; NP009052; SEQ ID NO:2) or the ligand-binding domains (LBD) of LXRα (amino acids 155-447 SEQ ID NO:3) or LXRβ (amino acids 156-461; SEQ ID NO:4) were expressed from pCMV-AD (Stratagene) as fusions to the transcriptional activation domain of NFkB. As cofactors, domains of either the steroid receptor coactivator 1 (SRC1; amino acids 552-887; SEQ ID NO:5) or of the corepressor NCoR (amino acids 1906-2312; NP006302; SEQ ID NO:6) were expressed as fusions to the DNA binding domain of the yeast transcription factor GAL4 (from pCMV-BD; Stratagene). Interaction was monitored via activation of a coexpressed Firefly Luciferase Reporter gene under control of a promoter containing repetitive GAL4 response elements (vector pFRLuc; Stratagene). Transfection efficiency was controlled via cotransfection of constitutively active pRL-CMV Renilla reniformis luciferase reporter (Promega). HEK293 cells were grown in minimum essential medium (MEM) with 2 mM L-glutamine and Earle's balanced salt solution supplemented with 8.3% fetal bovine serum, 0.1 mM non-essential amino acids, 1 mM sodium pyruvate, at 37° C. in 5% CO2. 3.5×10^4 cells/well were plated in 96-well cell culture plates in growth medium supplemented with 8.3% fetal bovine serum for 16-20 h to ˜90% confluency. For transfection, medium was taken off and LXR and cofactor expressing plasmids as well as the reporter plasmids are added in 30 μL OPTIMEM/well including polyethylene-imine (PEI) as vehicle. Typical amounts of plasmids transfected/well: pCMV-AD-LXR (5 ng), pCMV-BD-cofactor (5 ng), pFR-Luc (100 ng), pRL-CMV (0.5 ng). Compound stocks were prepared in DMSO, prediluted in MEM to a total volume of 120 μL, and added 4 h after addition of the transfection mixture (final vehicle concentration not exceeding 0.2%). Cells were incubated for additional 16 h, lysed for 10 min in 1×Passive Lysis Buffer (Promega) and Firefly and Renilla luciferase activities were measured sequentially in the same cell extract using buffers containing D-luciferine and coelenterazine, respectively. Measurements of luminescence were done in a BMG-luminometer.
The potencies of Compound 21/3 and its analog, Compound pre-6/3, against LXRα and LXRβ were evaluated in biochemical binding assays, cellular mammalian two-hybrid (M2H) interaction assays evaluating nuclear receptor co-repressor (NCOR) recruitment, and cellular reporter assays evaluating transcriptional activity (Table 5).

Row | Compound | pEC50 [1] | pEC50 [2]
1 | N#Cc1sccc1-c1c(-c2cccs2)n(S(=O)(=O)c2ccc(Cl)cc2)c2cc(O)ccc12 [13/1] | 5.00 to 6.00 | > 7.00
2 | N#Cc1sccc1-c1c(-c2cccs2)n(S(=O)(=O)c2ccc(Cl)cc2)c2ccc(OCCCC(=O)O)cc12 [15/1] | 5.00 to 6.00 | 6.00 to 7.00
3 | N#Cc1sccc1-c1c(-c2cccs2)n(S(=O)(=O)c2ccc(Cl)cc2)c2ccc(OCCCCC(=O)O)cc12 [15/2] | < 5.00 | 6.00 to 7.00
4 | N#Cc1sccc1-c1c(-c2cccs2)n(S(=O)(=O)c2ccc(Cl)cc2)c2cc(OCCCC(=O)O)ccc12 [15/4] | 5.00 to 6.00 | > 7.00
5 | N#Cc1sccc1-c1c(-c2cccs2)n(S(=O)(=O)c2ccc(Cl)cc2)c2cc(OCCCCC(=O)O)ccc12 [15/5] | 5.00 to 6.00 | > 7.00
6 | COc1ccc(S(=O)(=O)n2c(-c3ccc(CCC(=O)O)cc3)c(-c3ccsc3C#N)c3ccccc32)cc1 [15/6] | 5.00 to 6.00 | 6.00 to 7.00
7 | N#Cc1ccncc1-c1c(-c2cccs2)n(S(=O)(=O)c2ccc(Cl)cc2)c2ccccc12 [20/2] | 5.00 to 6.00 | > 7.00
8 | O=S(=O)(c1ccc(Cl)cc1)n1c(-c2cccs2)c(-c2ccsc2C(F)F)c2ccccc21 [20/3] | 6.00 to 7.00 | > 7.00
9 | N#Cc1cscc1-c1c(-c2cccs2)n(S(=O)(=O)c2ccc(Cl)cc2)c2ccccc12 [20/4] | 5.00 to 6.00 | > 7.00
10 | CS(=O)(=O)c1ccccc1-c1c(-c2cccs2)n(S(=O)(=O)c2ccc(Cl)cc2)c2ccccc12 [20/5] | 5.00 to 6.00 | 6.00 to 7.00
11 | N#Cc1cc(F)ccc1-c1c(-c2cccs2)n(S(=O)(=O)c2ccc(Cl)cc2)c2ccccc12 [20/6] | 6.00 to 7.00 | > 7.00
12 | N#Cc1nccnc1-c1c(-c2cccs2)n(S(=O)(=O)c2ccc(Cl)cc2)c2ccccc12 [20/7] | 5.00 to 6.00 | > 7.00
13 | N#Cc1sccc1-c1c(-c2cccs2)n(S(=O)(=O)c2ccc(F)cc2)c2ccccc12 [20/11] | 6.00 to 7.00 | > 7.00
14 | N#Cc1sccc1-c1c(-c2cccs2)n(S(=O)(=O)c2ccc(F)cc2F)c2ccccc12 [20/12] | 5.00 to 6.00 | > 7.00
15 | N#Cc1sccc1-c1c(-c2cccs2)n(S(=O)(=O)c2ccc(Cl)cc2)c2ccccc12 [20/13] | 6.00 to 7.00 | > 7.00
16 | COC(=O)CCc1ccc(S(=O)(=O)n2c(-c3cccs3)c(-c3ccsc3C#N)c3ccccc32)cc1 [20/15] | 6.00 to 7.00 | 6.00 to 7.00
17 | COc1ccc(S(=O)(=O)n2c(-c3ccccc3)c(C3=C(C#N)CCCC3)c3ccccc32)cc1 [20/16] | 5.00 to 6.00 | 6.00 to 7.00
18 | COc1ccc(S(=O)(=O)n2c(-c3ccccc3)c(C3=C(C#N)c4ccccc4CC3)c3ccccc32)cc1 [20/19] | < 5.00 | 6.00 to 7.00
19 | COc1ccc(S(=O)(=O)n2c(-c3ccccc3)c(-c3ccc4ncccc4c3C#N)c3ccccc32)cc1 [20/20] | 5.00 to 6.00 | 6.00 to 7.00
20 | COc1ccc(S(=O)(=O)n2c(-c3ccccc3)c(-c3ccsc3C)c3ccccc32)cc1 [20/21] | 5.00 to 6.00 | > 7.00
21 | COc1ccc(S(=O)(=O)n2c(-c3ccccc3)c(-c3ccsc3OC)c3ccccc32)cc1 [20/22] | 6.00 to 7.00 | 6.00 to 7.00
22 | COc1ccc(S(=O)(=O)n2c(-c3ccccc3)c(-c3cc(C)sc3C#N)c3ccccc32)cc1 [20/23] | 5.00 to 6.00 | 6.00 to 7.00

Row | Compound | pEC50 [1] | pEC50 [2]
23 | N#Cc1ccc(OCC(=O)O)cc1-c1c(-c2cccs2)n(S(=O)(=O)c2ccc(Cl)cc2)c2ccccc12 [21/1] | 5.00 to 6.00 | 5.00 to 6.00
24 | N#Cc1c(OCC(=O)O)cccc1-c1c(-c2cccs2)n(S(=O)(=O)c2ccc(Cl)cc2)c2ccccc12 [21/2] | 5.00 to 6.00 | 5.00 to 6.00
25 | N#Cc1sccc1-c1c(-c2cccs2)n(S(=O)(=O)c2ccc(CCC(=O)O)cc2)c2ccccc12 [23/1] | 5.00 to 6.00 | > 7.00
26 | N#Cc1sccc1-c1c(-c2ccc(F)cc2)n(S(=O)(=O)c2ccc(Cl)cc2)c2ccccc12 [26/1] | 5.00 to 6.00 | > 7.00
27 | Cc1ccc(S(=O)(=O)n2c(-c3cccc(-c4cccc(C(=O)O)c4)c3)c(-c3ccsc3C#N)c3ccccc32)cc1 [30/1] | 6.00 to 7.00 | > 7.00
28 | Cc1ccc(S(=O)(=O)n2c(-c3cccc(-c4cccc(C(C)(C)C(=O)O)c4)c3)c(-c3ccsc3C#N)c3ccccc32)cc1 [30/2] | 5.00 to 6.00 | 6.00 to 7.00
29 | N#Cc1sccc1-c1c(-c2cccc(CCCC(=O)O)c2)n(S(=O)(=O)c2ccc(Cl)cc2)c2ccccc12 [30/5] | 5.00 to 6.00 | > 7.00
30 | N#Cc1sccc1-c1c(-c2cccc(N3CC(C(=O)O)C3)n2)n(S(=O)(=O)c2ccc(Cl)cc2)c2ccccc12 [30/6] | 5.00 to 6.00 | 6.00 to 7.00
31 | N#Cc1sccc1-c1c(-c2ccc(C3CC3C(=O)O)s2)n(S(=O)(=O)c2ccc(Cl)cc2)c2ccccc12 (stereo not shown) [30/8] | 5.00 to 6.00 | 6.00 to 7.00
32 | N#Cc1sccc1-c1c(-c2cc(Cl)cc(C3CC3C(=O)O)c2)n(S(=O)(=O)c2ccc(Cl)cc2)c2ccccc12 (stereo not shown) [30/9] | 5.00 to 6.00 | > 7.00
33 | N#Cc1sccc1-c1c(-c2cccc(N3CCC(C(=O)O)C3)c2)n(S(=O)(=O)c2ccc(Cl)cc2)c2ccccc12 (stereo not shown) [30/11] | 6.00 to 7.00 | > 7.00
34 | N#Cc1sccc1-c1c(-c2cccc(C3CC3C(=O)O)c2)n(S(=O)(=O)C2CC2)c2ccccc12 (stereo not shown) [30/12] | 5.00 to 6.00 | 6.00 to 7.00
35 | Cc1ccc(S(=O)(=O)n2c(-c3cccc(C4CC4C(=O)O)c3)c(-c3ccsc3F)c3ccccc32)cc1 (stereo not shown) [30/14] | 5.00 to 6.00 | 6.00 to 7.00
36 | Cc1ccc(S(=O)(=O)n2c(-c3cccc(C4CC4C(=O)O)c3)c(-c3ccc(F)cc3C#N)c3ccccc32)cc1 (stereo not shown) [30/15] | 5.00 to 6.00 | 6.00 to 7.00
37 | CS(=O)(=O)NC(=O)C1CC1c1cccc(-c2c(-c3ccsc3C#N)c3ccccc3n2S(=O)(=O)c2ccc(Cl)cc2)c1 (stereo not shown) [32/1] | 6.00 to 7.00 | > 7.00
38 | N#Cc1sccc1-c1c(-c2cccs2)n(S(=O)(=O)c2ccc(Cl)cc2)c2cc(CCC(=O)O)c(O)cc12 [Compound 17] | < 5.00 | 5.00 to 6.00
39 | O=C(O)c1sccc1-c1c(-c2cccs2)n(S(=O)(=O)c2ccc(Cl)cc2)c2ccccc12 [Compound 21] | < 5.00 | 5.00 to 6.00
40 | NC(=O)c1sccc1-c1c(-c2cccs2)n(S(=O)(=O)c2ccc(Cl)cc2)c2ccccc12 [Compound 22] | 5.00 to 6.00 | 6.00 to 7.00
41 | N#Cc1sccc1-c1c(-c2cccs2)n(S(=O)(=O)C2CCCCC2)c2ccccc12 [Compound 24] | 5.00 to 6.00 | > 7.00
42 | N#Cc1sccc1-c1c(-c2ccccc2)n(S(=O)(=O)c2ccc(Cl)cc2)c2ccccc12 [Compound 26] | 6.00 to 7.00 | > 7.00
43 | N#Cc1sccc1-c1c(-c2ccccc2)n(S(=O)(=O)c2ccc(OCC(=O)O)cc2)c2ccccc12 [Compound 27] | 5.00 to 6.00 | 6.00 to 7.00
44 | N#Cc1sccc1-c1c(-c2cccc(OCCC(=O)O)n2)n(S(=O)(=O)c2ccc(Cl)cc2)c2ccccc12 [Compound 31] | 5.00 to 6.00 | 6.00 to 7.00
